Laboratory results from PubChem BioAssay (NCI).
Values joined by “and” are separate entries in the source; they are usually repeats but may differ in a detail not shown here. Equal values may be shown once.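 Results reflect a 48-hour exposure of cells in 96-well plates to compound at five concentrations. GI50 = concentration required for 50% inhibition of growth. Definition used: TGI = concentration required for complete inhibition of growth.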

Key:
Test in all cases: DTP human tumour cell line panel, 48 h
EKVX NSCLC = tested on: EKVX NSCLC
IGROV1 ovarian = tested on: IGROV1 ovarian
LOX IMVI melanoma = tested on: LOX IMVI melanoma
MCF7 breast = tested on: MCF7 breast
NCI-H460 lung = tested on: NCI-H460 lung
NCI/ADR-RES ovarian = tested on: NCI/ADR-RES ovarian
OVCAR-4 ovarian = tested on: OVCAR-4 ovarian
PC-3 prostate = tested on: PC-3 prostate
SF-539 CNS = tested on: SF-539 CNS
SNB-19 CNS = tested on: SNB-19 CNS
SW-620 colon = tested on: SW-620 colon
TK-10 renal = tested on: TK-10 renal
UACC-62 melanoma = tested on: UACC-62 melanoma
SNB-75 CNS = tested on: SNB-75 CNS
T-47D breast = tested on: T-47D breast

Row | Structure (SMILES) | TGI (EKVX NSCLC) [µM] | TGI (IGROV1 ovarian) [µM] | TGI (LOX IMVI melanoma) [µM] | TGI (MCF7 breast) [µM] | TGI (NCI-H460 lung) [µM] | TGI (NCI/ADR-RES ovarian) [µM] | TGI (OVCAR-4 ovarian) [µM] | TGI (PC-3 prostate) [µM] | TGI (SF-539 CNS) | TGI (SNB-19 CNS) [µM] | TGI (SW-620 colon) [µM] | TGI (TK-10 renal) [µM] | TGI (UACC-62 melanoma) | TGI (SNB-75 CNS) | TGI (T-47D breast) [µM] | GI50 (EKVX NSCLC) [µM] | GI50 (NCI/ADR-RES ovarian) [µM] | GI50 (OVCAR-4 ovarian) [µM] | GI50 (SNB-75 CNS) [µM] | GI50 (TK-10 renal) [µM]
1 | CCOC1NC(/N=C/c2ccc(OC)cc2)=C(C#N)C1C#N (stereo unspecified) | > 100 | > 100 | > 100 | > 100 | > 100 | > 100 | > 100 | > 100 | > 100 µM | > 100 | > 100 | > 100 | > 100 µM | – | – | – | – | – | – | –
2 | COc1cc2[nH]c(=O)c3cc(C)cc4c(Cl)nc(c1OC)c2c43 | > 100 | > 100 | > 100 | > 100 | > 100 | > 100 | > 100 | > 100 | > 100 µM | > 100 | > 100 | > 100 | 96 µM | 85.3 µM | – | – | – | – | – | –
3 | O=C(Nc1ccc(Sc2ccc(N=Nc3c(O)c(S(=O)(=O)O)cc4cc(S(=O)(=O)O)ccc34)cc2)cc1)c1ccc(N=Nc2c(O)c(S(=O)(=O)O)cc3cc(S(=O)(=O)O)ccc23)cc1 | > 100 | > 100 | 34.5 | – | 27.7 | – | > 100 | – | > 100 µM | > 100 | > 100 | > 100 | 62 µM | > 100 µM | – | – | – | – | – | –
4 | CC1CCOc2ccc(cc2)C=Nc2ccc(cc2)-c2ccc(cc2)N=Cc2ccc(cc2)OCC1 (stereo unspecified) | > 100 | > 100 | > 100 | > 100 | > 100 | > 100 | > 100 | > 100 | > 100 µM | – | > 100 | > 100 | – | – | – | – | – | – | – | –
5 | CC1=NN(C(=O)Cc2ccccc2)C(=O)/C1=C\c1ccccc1O | > 100 | > 100 | > 100 | – | > 100 | – | > 100 | – | > 100 µM | > 100 | > 100 | > 100 | > 100 µM | – | – | – | – | – | – | –
6 | O=C(CSCC(=O)N/N=C\c1ccccc1F)N/N=C\c1ccccc1F | > 100 | > 100 | > 100 | > 100 | > 100 | 63.1 | > 100 | – | > 100 µM | > 100 | > 100 | > 100 | > 100 µM | > 100 µM | > 100 | – | – | – | – | –
7 | N#CCc1nc2cc(C(F)(F)F)ccc2s1 | > 100 | – | 80.2 | – | – | > 100 | > 100 | – | > 100 µM | – | > 100 | > 100 | – | > 100 µM | > 100 | – | – | – | – | –
8 | CC(C)(C)OC(=O)n1c(Cl)c(C=O)c2ccccc21 | 76.6 | > 100 | 68.1 | – | 46.1 | 58 | > 100 | 64.6 | 89.1 µM | > 100 | > 100 | 53.4 | 43.3 µM | > 100 µM | > 100 | – | – | – | – | –
9 | CCCCCCCCCCCCCCCC(=O)OCC1OC(OC)C(NC(=O)N(CCCl)N=O)C(O)C1O (stereo unspecified) | > 87.5 | 54 | 17.5 | > 100 | 23.1 | 58.9 | 53.4 | 51.7 | 15.3 µM | > 67.2 | 28.5 | 63.2 | 15 µM | 38.5 µM | – | – | – | – | – | –
10 | CC1C(C#N)(C#N)C(C#N)=C(N)C1(C)[N+](=O)[O-] (stereo unspecified) | 42.6 | > 100 | > 100 | > 100 | > 100 | > 100 | > 100 | > 100 | > 100 µM | > 100 | > 100 | > 100 | > 100 µM | > 100 µM | – | – | – | – | – | –
11 | CCOc1ccc(NCC2CC/C(=C\c3ccc(Cl)cc3)C2=O)cc1 (stereo unspecified) | > 73.8 | > 50.6 | 35.4 | – | > 100 | – | > 75.3 | – | > 57 µM | > 100 | 39.6 | > 65.6 | > 64.3 µM | > 76.5 µM | – | – | – | – | – | –
12 | OCC1OC(c2ccccc2)CC1O (stereo unspecified) | > 100 | > 100 | > 100 | > 100 | > 100 | > 100 | > 100 | – | > 100 µM | > 100 | > 100 | > 100 | > 100 µM | > 100 µM | – | – | – | – | – | –
13 | CN(C(=O)C12C3C4C1C1C2C3C41C(O)C(C)(C)C)C(C)(C)C (stereo unspecified) | > 100 | > 100 | > 100 | – | > 100 | – | > 100 | – | > 100 µM | > 100 | > 100 | > 100 | > 100 µM | > 100 µM | – | – | – | – | – | –
14 | COc1cc2c(c(OC)c1OC)-c1ccc(SC)c(=O)cc1[C@@H](NCc1cccc([N+](=O)[O-])c1)CC2 | > 100 | > 100 | 38.1 | – | 12.4 | – | > 100 | – | 0.17 µM | > 100 | > 100 | > 100 | 17.8 µM | > 100 µM | – | – | – | – | – | –
15 | c1ccc2c(c1)Sc1ccccc1N2C1CN2CCC1CC2 (stereo unspecified) | 27.7 | 42.3 | 26.8 | – | 33.4 | – | 35.2 | – | 28.3 µM | 46.7 | 33.2 | 27.7 | 34.5 µM | 25.4 µM | – | – | – | – | – | –
16 | Cc1cn([C@@H]2C[C@H](CO)[C@@H]2O)c(=O)[nH]c1=O | > 100 | > 100 | > 100 | > 100 | > 100 | > 100 | > 100 | > 100 | > 100 µM | – | > 100 | > 100 | – | > 100 µM | – | – | – | – | – | –
17 | Cc1c2oc3c(C)cc(F)c(C(=O)NC4C(=O)NC(C(C)C)C(=O)N5CCCC5C(=O)N(C)CC(=O)N(C)C(C(C)C)C(=O)OC4C)c3nc-2c(C(=O)NC2C(=O)NC(C(C)C)C(=O)N3CCCC3C(=O)N(C)CC(=O)N(C)C(C(C)C)C(=O)OC2C)c(N)c1=O (stereo unspecified) | 46.8 | > 100 | 0.159 | 60.6 | 13.5 | 91 | > 100 | 4.68 | 1.41 µM and 0.727 µM | 21.1 | 3.77 | – | 0.492 µM and 0.154 µM | 1.9 µM and 1.75 µM | – | 0.767 | 5.62 | 0.559 | 0.121 | 1.07
